Patent publication US20090203726A1, “SUBSTITUTED TETRAHYDROQUINOLINES AS ANTIBACTERIAL AGENTS” (priority 2007, published 2009)
Where two headings read alike, the source gives them in different places.

How the values were obtained:
[1] = target: T1, MurA (EPT E coli) (Escherichia coli, UniProt P0A749); test: Kinetic IC50 assay of MurA inhibition (Malachite Green), EPT E coli; type: biochemical
T1 construct: made in house

[2] = target: MurA (EPT Y pestis) (Yersinia pestis, UniProt Q8ZB56); test: biochemical
[3] = MurA enzyme, E coli, values given as ranges, read-out: IC50 EPT E coli

MurA (EPT Y pestis), sequence (Q8ZB56 whole entry, looked up): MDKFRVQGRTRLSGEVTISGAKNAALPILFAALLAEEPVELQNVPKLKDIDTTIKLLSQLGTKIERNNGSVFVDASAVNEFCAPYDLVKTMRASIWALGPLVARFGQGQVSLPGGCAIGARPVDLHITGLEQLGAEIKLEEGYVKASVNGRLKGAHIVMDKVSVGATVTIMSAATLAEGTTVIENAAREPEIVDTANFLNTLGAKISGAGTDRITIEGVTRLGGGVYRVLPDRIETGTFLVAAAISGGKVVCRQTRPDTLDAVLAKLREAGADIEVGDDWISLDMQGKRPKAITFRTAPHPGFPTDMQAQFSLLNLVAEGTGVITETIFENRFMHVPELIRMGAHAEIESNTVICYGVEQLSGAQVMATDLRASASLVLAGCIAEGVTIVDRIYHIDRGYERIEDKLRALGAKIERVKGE
T1 sequence (P0A749 whole entry): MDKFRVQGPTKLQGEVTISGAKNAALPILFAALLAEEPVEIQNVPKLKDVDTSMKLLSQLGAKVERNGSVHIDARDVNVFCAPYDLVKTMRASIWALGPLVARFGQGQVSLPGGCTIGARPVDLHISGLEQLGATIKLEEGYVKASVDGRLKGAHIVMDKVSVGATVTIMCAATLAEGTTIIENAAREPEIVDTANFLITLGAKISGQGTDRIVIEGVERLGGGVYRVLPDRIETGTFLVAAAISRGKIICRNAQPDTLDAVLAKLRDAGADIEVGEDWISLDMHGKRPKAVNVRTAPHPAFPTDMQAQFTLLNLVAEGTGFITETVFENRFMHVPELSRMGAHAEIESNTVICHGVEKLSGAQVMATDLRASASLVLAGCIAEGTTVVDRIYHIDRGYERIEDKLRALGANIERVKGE

Structure (SMILES)	IC50 [1, 3]	IC50 [2]	IC50 [1]
CC(=O)Nc1ccc2c(c1)C1C=CCC1C(C(=O)O)N2 (stereo not drawn) [Compound 6]	> 200 µM	50 to 100 µM	–
NC(=O)c1cccc2c1NC(C(=O)O)C1CC=CC21 (stereo not drawn) [Compound 7]	5 to 20 µM	20 to 40 µM	–
COc1ccc(-c2ccc(OC(=O)c3cccc4c3NC(C(=O)O)C3CC=CC43)cc2)cc1 (stereo not drawn) [Compound 32]	40 to 60 µM	15 to 25 µM	–
N#Cc1cc(COc2cccc3c2NC(C(=O)O)C2CC=CC32)ccc1-c1ccccc1 (stereo not drawn) [Compound 37]	> 200 µM	–	–
O=C(c1ccccc1)c1ccc(OC(=O)c2cccc3c2NC(C(=O)O)C2CC=CC32)cc1 (stereo not drawn) [Compound 41]	120 to 140 µM	70 to 80 µM	–
O=C(Oc1ccc(-c2ccccc2)cc1)c1cc(Cl)cc2c1NC(C(=O)O)C1CC=CC21 (stereo not drawn) [Compound 40]	30 to 50 µM	5 to 15 µM	–
O=C(Oc1ccc(-c2ccccc2)cc1Cl)c1cccc2c1NC(C(=O)O)C1CC=CC21 (stereo not drawn) [Compound 21]	30 to 50 µM	5 to 15 µM	–
COc1ccc(-c2ccc(COc3cccc4c3NC(C(=O)O)C3CC=CC43)cc2)cc1 (stereo not drawn) [Compound 38]	> 200 µM	–	–
COc1ccc(NC(=O)c2cccc3c2NC(C(=O)O)C2CC=CC32)cc1 (stereo not drawn) [Compound 14]	> 200 µM	–	–
O=C(Oc1cc(Cl)cc(Cl)c1)c1cccc2c1NC(C(=O)O)C1CC=CC21 (stereo not drawn) [Compound 49]	30 to 50 µM	1 to 10 µM	–
O=C(Nc1ccc(-c2ccccc2)cc1)c1cccc2c1NC(C(=O)O)C1CC=CC21 (stereo not drawn) [Compound 15]	50 to 100 µM	–	–
O=C(O)C1Nc2c(OCc3ccccc3)cccc2C2C=CCC12 (stereo not drawn) [Compound 29]	> 200 µM	–	–
O=C(O)c1ccc2c(c1)C1C=CCC1C(C(=O)O)N2 (stereo not drawn) [Compound 3]	2 to 40 µM	10 to 30 µM	–
CCOC(=O)C1Nc2c(C(=O)Nc3ccccc3)cccc2C2C=CCC12 (stereo not drawn) [Compound 8]	> 200 µM	–	–
Cc1ccc(OCc2cccc3c2NC(C(=O)O)C2CC=CC32)cc1 (stereo not drawn) [Compound 28]	> 200 µM	–	–
CCOC(=O)C1Nc2c(C(=O)Oc3ccc(-c4ccc(C#N)cc4)cc3)cccc2C2C=CCC12 (stereo not drawn) [Compound 11]	> 200 µM	–	–
O=C(O)C1Nc2ccc(F)c(Cl)c2C2C=CCC12 (stereo not drawn) [Compound 2]	> 200 µM	10 to 30 µM	–
O=C(Oc1ccc(-c2ccccc2)cc1[N+](=O)[O-])c1cccc2c1NC(C(=O)O)C1CC=CC21 (stereo not drawn) [Compound 23]	–	10 to 20 µM	30 to 50 µM
Cc1ccc(COc2cccc3c2NC(C(=O)O)C2CC=CC32)cc1 (stereo not drawn) [Compound 30]	> 200 µM	–	–
CC(=O)N(c1ccccc1)c1ccc(OC(=O)c2cccc3c2NC(C(=O)O)C2CC=CC32)cc1 (stereo not drawn) [Compound 42]	40 to 60 µM	–	–
O=C(Oc1ccc([N+](=O)[O-])cc1)c1cccc2c1NC(C(=O)O)C1CC=CC21 (stereo not drawn) [Compound 48]	–	–	180 to 200 µM
CN(C)C(=O)c1ccc(-c2ccc(OC(=O)c3cccc4c3NC(C(=O)O)C3CC=CC43)cc2)cc1 (stereo not drawn) [Compound 35]	> 200 µM	–	–
O=C(O)C1Nc2c(COc3ccc(-c4ccccc4)cc3)cccc2C2C=CCC12 (stereo not drawn) [Compound 36]	> 200 µM	–	–

Structure (SMILES)	IC50 [1, 3]	IC50 [2]	IC50 [1]
O=C(Nc1ccccc1)c1cccc2c1NC(C(=O)O)C1CC=CC21 (stereo not drawn) [Compound 9]	> 200 µM	–	–
CCOC(=O)C1Nc2c(C(=O)Oc3ccc(-c4cccc(C#N)c4)cc3)cccc2C2C=CCC12 (stereo not drawn) [Compound 12]	> 200 µM	–	–
O=C(O)C1Nc2cc(C(F)(F)F)ccc2C2C=CCC12 (stereo not drawn) [Compound 5]	150 to 200 µM	10 to 30 µM	–
O=C(O)C1Nc2c(C(=O)N3CCN(c4ccccc4)CC3)cccc2C2C=CCC12 (stereo not drawn) [Compound 10]	> 200 µM	–	–
O=C(O)C1Nc2c(COc3ccccc3)cccc2C2C=CCC12 (stereo not drawn) [Compound 25]	> 200 µM	–	–
COc1ccc(-c2ccc(N(Cc3cccc4c3NC(C(=O)O)C3CC=CC43)C(C)=O)cc2)cc1 (stereo not drawn) [Compound 50]	150 to 170 µM	–	–
COc1ccc(OC(=O)c2cccc3c2NC(C(=O)O)C2CC=CC32)cc1 (stereo not drawn) [Compound 46]	1 to 10 µM	–	–
O=C(Oc1ccc(-c2ccccc2)cc1Cl)c1cccc2c1NC(C(=O)O)C1CC3OC3C21 (stereo not drawn) [Compound 22]	40 to 60 µM	10 to 30 µM	–
O=C(Oc1ccc(Oc2ccccc2)cc1)c1cccc2c1NC(C(=O)O)C1CC=CC21 (stereo not drawn) [Compound 39]	50 to 70 µM	10 to 30 µM	–
O=C(Oc1ccccc1)c1cccc2c1NC(C(=O)O)C1CC=CC21 (stereo not drawn) [Compound 43]	30 to 50 µM	–	–
CN(C)C(=O)c1cccc2c1NC(C(=O)O)C1CC=CC21 (stereo not drawn) [Compound 4]	> 200 µM	80 to 120 µM	–
O=C(O)C1Nc2ccc(F)cc2C2C=CCC12 (stereo not drawn) [Compound 1]	5 to 20 µM	20 to 40 µM	–
O=C(Oc1ccc(-c2ccc(Cl)cc2)cc1)c1cccc2c1NC(C(=O)O)C1CC=CC21 (stereo not drawn) [Compound 34]	60 to 80 µM	1 to 10 µM	–
O=C(Oc1ccc(-c2ccc(O)cc2)cc1)c1cccc2c1NC(C(=O)O)C1CC=CC21 (stereo not drawn) [Compound 31]	90 to 110 µM	20 to 40 µM	–
CC(C)(C)c1ccc(OCc2cccc3c2NC(C(=O)O)C2CC=CC32)cc1 (stereo not drawn) [Compound 26]	> 200 µM	–	–
O=C(Oc1ccc(Cl)cc1)c1cccc2c1NC(C(=O)O)C1CC=CC21 (stereo not drawn) [Compound 45]	160 to 180 µM	–	–
O=C(O)C1Nc2c(COc3ccc(Cl)cc3)cccc2C2C=CCC12 (stereo not drawn) [Compound 27]	> 200 µM	–	–
O=C(Oc1ccc(-c2ccc([N+](=O)[O-])cc2)cc1)c1cccc2c1NC(C(=O)O)C1CC=CC21 (stereo not drawn) [Compound 33]	40 to 60 µM	10 to 20 µM	–
O=C(Nc1ccc(Cl)cc1)c1cccc2c1NC(C(=O)O)C1CC=CC21 (stereo not drawn) [Compound 13]	> 200 µM	–	–
N#Cc1ccc(-c2ccc(OC(=O)c3cccc4c3NC(C(=O)O)C3CC=CC43)cc2)cc1 (stereo not drawn) [Compound 24]	40 to 60 µM	20 to 30 µM	–
CC(C)(C)c1ccc(OC(=O)c2cccc3c2NC(C(=O)O)C2CC=CC32)cc1 (stereo not drawn) [Compound 47]	10 to 20 µM	5 to 15 µM	–
Cc1ccc(OC(=O)c2cccc3c2NC(C(=O)O)C2CC=CC32)cc1 (stereo not drawn) [Compound 44]	1 to 10 µM	1 to 5 µM	–
